The values below come from patent publication US9840470B2, “Targeting GLI proteins in human cancer by small molecules” (The Regents of the University of California, priority 2013, dated 2017).

The subject of one data set is melanoma MelJuso. Put plainly: In vivo efficacy, mouse xenograft model (melanoma MelJuso). Conditions: for tumor growth: 50 mg/kg body weight i.p. daily for 14 days, from 13 days after inoculation; for tumor weight (FIG. 1): melanoma MelJuso xenograft, after treatment. Here is the method: (§1) The administered compounds were tested in vivo in the mouse xenograft model bearing human cancer cells. Briefly, female athymic nude mice strain NCRNU-M (5-10 weeks old, 20-25 grams in weight; Taconic, Germantown, N.Y.) was maintained in pathogen-free conditions. Three human cancer cell lines: NSCLC A549, melanoma MelJuso, and mesothelioma MS-1 were used. Five or ten mice were used in each group and injected s.c. with 3×10^6 cancer cells in the dorsal area in a volume of 100 μl. After inoculation, human cancer cells were allowed to grow in mice for 10-13 days to become visible tumor nodules. Animals were then injected with a compound of the embodiments at a dose of 50 mg/kg body weight (1 mg/mouse per day). Vehicle alone was used as control. The compounds and controls were adjusted in 40 ul volume for i.p. injection in the abdomens of the mice. Injections were performed daily around the same time for 14 days. Tumors were allowed to grow for 1-2 additional weeks after completion of the compound treatments. Tumor size was measured every three to four days, and tumor volumes were calculated using width (x) and length (y) (x^2y/2, where x<y). Throughout this period, general toxicity of the treatments was also monitored by measuring body weight of the mice. Data was presented as mean values (±S.D.).
In vivo efficacy study of Compounds 1, 2, 4, and 6 were performed using a Mouse Xenograft Model (Melanoma MelJuso). Mice were injected s.c. with 3×10^6 cells in the dorsal area in a volume of 100 μl. 13 days after inoculation, the mice started receiving treatments with the administered compound at a dose of 50 mg/kg body weight daily for 14 days (n=10). Vehicle alone was used as control (n=10). The administered compounds and vehicle were adjusted in a volume of 40 μl for i.p. injection in the abdomens of the mice. Tumor size and tumor volumes were calculated as described above.

The test system of data set [1] is Hedgehog signaling pathway. Put plainly: Quantitative RT-PCR of Hh pathway genes in xenograft tumors. The format is in vivo, mouse. Particulars: Melanoma tumor (MelJuso), pooled tumor from two mice. The protocol:
(§2) Total RNA was isolated using Qiagen RNeasy Mini Kit (Valencia, Calif.). Hybridization probes and primers (Table 1) were purchased from Applied Biosystems (ABI, Foster City, Calif.). cDNA synthesis and Taqman® PCR were performed according to the manufactures' protocols. The gene expression was assayed in triplicate in ABI 7300 Real-time PCR System. Samples were normalized to their housekeeping gene GAPDH and then calculated by using 2^−dct method.
To examine whether Compounds 1, 2, 4, and 6 suppressed tumor growth through inhibition of the Hedgehog signaling pathway in vivo, expression of the key components and direct target genes of the Hh pathway (e.g. Gli1, Gli2, Gli3, HHIP and Cyclin D1) were analyzed by quantitative real-time RT-PCR using total RNA isolated from the xenograft tumors. GAPDH served as a control. This RT-PCR analysis was performed using a “pooled” tumor from two randomly selected mice of each group with reasonable size tumors. […] The results are shown in FIG. 4, where C is control and V is vehicle.

Data set [2] is described as follows: Preliminary in vivo toxicity: leukocyte population and body weight after treatment. Further details: species or system mouse. Particulars: for changes of leukocyte population: at completion of the in vivo studies; for loss of body weight: during the course of drug administration. Here is the method:
as §1
(§3) After the in vivo studies were completed, different organs were resected from mice. These organs included liver, lung, heart, kidney, intestines, ovary, brain, spleen, skin, and muscle. The specimens were fixed in 4% buffered formaldehyde, embedded in paraffin, sectioned, and histologically analyzed by hematoxylin and eosin (HE) staining. The HE stained slides were examined by a mouse pathologist for toxicity evidence from all the organs as compared with vehicle controls. In addition, leukocytes (WBC: white blood cell, NE: neutrophil, LY: lymphocyte, MO: monocyte, EO: eosinophil, BA: basophil) from each animal from all treatment groups were collected and leukocyte population was counted through a blood cell counter.
(§4) As preliminary in vivo toxicity study of Compounds 1, 2, 4, and 6, it was examined if there were changes of leukocyte population and loss of body weight in the mice after the treatment. At the completion of the in vivo studies as described herein, leukocytes (WBC: white blood cell, NE: neutrophil, LY: lymphocyte, MO: monocyte, EO: eosinophil, BA: basophil) from each animal from all treatment groups were collected and leukocyte population was counted through a blood cell counter. Body weights of control groups (n=10) and the treated group (n=10) were measured using a scale during the course of drug administration. […] In an additional toxicity study, effect of different doses of compounds 4 and 6 on the body weight of mice was examined. The compounds were i.p. injected in the abdomens at 3 different doses: 25, 50, and 100 mg/kg body weight to mice (3 mice per dosing group) for 6 consecutive days.

The next data set relates to mesothelioma MS-1. Nature of the data set: In vivo efficacy, mouse xenograft model (mesothelioma MS-1). Particulars: 50 mg/kg body weight i.p. daily for 14 days, from ten days after inoculation. Here is the method:
as §1, with “Tumors were allowed to grow for 1-2 additional weeks after completion of the compound treatments.” left out, “Data was presented as mean values (±S.D.).” left out
In vivo efficacy study of Compounds 1 and 4 were performed using a Mouse Xenograft Model (Mesothelioma MS-1). […] Tumor sizes was measured twice weekly until the completion of the experiments. […]

The next data set deals with NSCLC A549. Put plainly: In vivo efficacy, mouse xenograft model (lung cancer A549). Conditions: 50 mg/kg i.p. daily for 14 days, then 50 mg/kg daily for 1x7 days; tumors weighed 43 days after inoculation. Here is the method: as §1, with “Tumors were allowed to grow for 1-2 additional weeks after completion of the compound treatments.” left out, “Data was presented as mean values (±S.D.).” left out
In vivo efficacy study of Compounds 1 and 4 in Mouse Xenograft Model (NSCLC A549) was examined. […] 43 days after the initial tumor inoculation, tumors were dissected from the mice of each group and their weights were measured using a scale. […]

In a further data set the test system is Wnt signaling pathway. Put plainly: Quantitative RT-PCR of canonical Wnt pathway genes in xenograft tumors. The data set is classed as in vivo, mouse. Conditions: Melanoma tumor, pooled tumor from two mice, compared to controls. Here is the method:
as §2
To examine whether Compounds 1, 2, 4, and 6 suppressed tumor growth through inhibition of the Wnt signaling pathway in vivo, expression of the key components and direct target genes of the Wnt pathway (e.g. Wnt2, Axin2, EGFR, and Cyclin D1) were analyzed by quantitative real-time RT-PCR using total RNA isolated from the xenograft tumors. GAPDH served as a control. This RT-PCR analysis was performed using a “pooled” tumor from two randomly selected mice of each group with reasonable size tumors. […] The results are shown in FIG. 4, where C is control and V is vehicle.

The nature of data set [3]: Histological (H&E) examination of mouse organs for toxicity. Conditions: i.p. two doses daily for 6 days; liver, spleen, kidney, heart. The data set is classed as in vivo.
From the text: as §3
To analyze toxicity of the Compounds 1, 2, 4, and 6 in vivo, each group (three mice) was i.p. injected with two doses of each Compound daily for 6 days, and then major mouse organs, such as liver, spleen, kidney, and heart were resected from the mice.

Data set [4] in a line: Additional toxicity study: body weight at different doses. The data set is classed as in vivo, mouse. Conditions: i.p. 25, 50, and 100 mg/kg body weight for 6 consecutive days. Here is the method:
Each dosing group contained 3 mice. The body weight of mice was measured using a scale. Results are the means±SD (error bars).
as §4

In data set [5] the test system is human MM cell lines (mesothelioma cells). Put plainly: Combination treatment with chemotherapies, MTS proliferation assay, mesothelioma cells. The format is cell-based. Particulars: 72 hours, Combination Index. From the text: (§5) Another assay for determining the number of viable cells in proliferation or cytotoxicity assays is the MTS assay, a colorimetric method. MTS assay reagents are commercially available (Promega Corp., Madison, Wis.). The reagent contains a tetrazolium compound [3-(4,5-dimethylthiazol-2-yl)-5-(3-carboxymethoxyphenyl)-2-(4-sulfophenyl)-2H-tetrazolium, inner salt; MTS] and an electron coupling reagent (phenazine ethosulfate; PES). PES has enhanced chemical stability, which allows it to be combined with MTS to form a stable solution. The MTS tetrazolium compound (Owen's reagent) is bioreduced by cells into a colored formazan product that is soluble in tissue culture medium. This conversion may be accomplished by NADPH or NADH produced by dehydrogenase enzymes in metabolically active cells. The quantity of formazan product as measured by the absorbance at 490 nm is directly proportional to the number of living cells in culture. Because the MTS formazan product is soluble in tissue culture medium, this assay requires fewer steps than procedures that use tetrazolium compounds such as MTT. The formazan product of MTT reduction is a crystalline precipitate that requires an additional step in the procedure to dissolve the crystals before recording absorbance readings at 570 nm.
(§6) Combination treatments of the Compounds with several chemotherapies: erlotinib (Tarceva®), PI3K inhibitor LY294002, TGFβ inhibitor SB431542, and pemetrexed (Alimta®) were performed in human NSCLC and MM cell lines (FIGS. 12-17). In all experiments, NSCLC and MM cell lines were treated with different doses of each compound or combination for 72 hours, and MTS assays were performed to determine the cell proliferations. Combination Index (CI), calculated by CalcuSyn software (Biosoft, Cambridge, UK), was applied to describe the effect of the combination effects of two compounds, where CI<1 indicates Synergism, CI=1 indicates Additive effects, and CI>1 indicates Antagonism. Student's t-tests were applied for statistical analysis.

For a further data set, the system named is human NSCLC cell lines. Put plainly: Combination treatment with chemotherapies, MTS proliferation assay, lung cancer cells. The data set is classed as cell-based. Particulars: 72 hours, Combination Index.
From the text: as §5, §6

On to `CC(C)(CO)CCCNC(=O)C1C(c2ccccc2)=NN(c2ccccc2)C1c1ccsc1` (stereo not drawn) [Compound 1, 1,3-diphenyl-5-thiophen-3-yl-4,5-dihydro-1H-pyrazole-4-carboxylic acid (5-hydroxy-4,4-dimethyl-pentyl)-amide], for which, in the data set on melanoma MelJuso, the tumor growth result was “dramatically suppressed” and the “tumor weight (FIG. 1)” value was “significantly decreased”. Moreover, the “Hh signaling (expression of Gli1, Gli2, Gli3, HHIP, Cyclin D1)” value (shortened to “Hh signaling”) in data set [1] is listed as “inhibited”. Also, in data set [2], the “changes of leukocyte population” value was “No noticeable changes of leukocyte population” and the “loss of body weight” value is “No noticeable changes of leukocyte population or loss of the body weight”. The “tumor weight compared to the control group” value in the data set on mesothelioma MS-1 was “decreased”. Moreover, the “tumor weight compared to the control group” value in the data set on NSCLC A549 was “decreased”. Also, in the data set with Wnt signaling pathway, the “expression of the key indicator of the canonical Wnt activation” value is reported as “significantly down-regulated”. In addition, in [3], the “toxicity in organs (H&E histology)” value is given as “No noticeable toxicity”.
As for `O=C(NCc1ccc(O)cc1)C1C(c2ccccc2)=NN(c2ccccc2)C1c1ccccc1` (stereo not drawn) [Compound 2, 1,3,5-triphenyl-4,5-dihydro-1H-pyrazole-4-carboxylic acid 4-hydroxy-benzylamide], in the data set on melanoma MelJuso, the tumor growth result is “dramatically suppressed” and the “tumor weight (FIG. 1)” value is “significantly decreased”. Also, the “Hh signaling” value in data set [1] is on record as “inhibited”. For the same compound, in [2], the “changes of leukocyte population” value is “No noticeable changes of leukocyte population” and the “loss of body weight” value is given as “No noticeable changes of leukocyte population or loss of the body weight”. Moreover, in the data set with Wnt signaling pathway, the “expression of the key indicator of the canonical Wnt activation” value is “significantly down-regulated”. The “toxicity in organs (H&E histology)” value in data set [3] is “No noticeable toxicity”.
With `CC(C)(CO)CCCNC(=O)C1C(c2ccc(F)cc2)=NN(c2ccccc2)C1c1cccc(F)c1` (stereo not drawn) [Compound 6, 3-(4-fluoro-phenyl)-5-(3-fluoro-phenyl)-1-phenyl-4,5-dihydro-1H-pyrazole-4-carboxylic acid (5-hydroxy-4,4-dimethyl-pentyl)-amide], in the data set with melanoma MelJuso, the tumor growth result was “dramatically suppressed” and the “tumor weight (FIG. 1)” value is reported as “significantly decreased”. Further, in data set [4], the “loss of body weight” value was “no noticeable loss of the body weight”. In data set [5], the “combination effect with PI3K inhibitor LY294002” value was “synergy” and the “combination effect with pemetrexed (Alimta)” value was “synergy”. For the same compound, in the data set on human NSCLC cell lines, the “combination effect with PI3K inhibitor LY294002” value was “synergy” and the “combination effect with TGFβ inhibitor SB431542” value is “synergy”. Moreover, the “Hh signaling” value in [1] is reported as “inhibited”. Also, in data set [2], the “changes of leukocyte population” value was “No noticeable changes of leukocyte population” and the “loss of body weight” value is reported as “No noticeable changes of leukocyte population or loss of the body weight”. For the same compound, the “toxicity in organs (H&E histology)” value in data set [3] is on record as “No noticeable toxicity”.
